Laboratory results reported in ChEMBL document CHEMBL1201862, “PubChem BioAssay data set” (2004).
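Step 1: Grow cells in 96-well plates. Step 2: Expose to compound for 48 hours at 5 concentrations. Step 3: Interpolate endpoints linearly; if unreached, use highest concentration. Here, GI50 denotes the concentration required for 50% inhibition of growth.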 The source made the active and inactive calls. Cut-off read from the data, not from the text of the source: active = GI50 up to about 1.1 µM and inactive = higher.

Key:
Experiment in all cases: NCI tumour cell line growth inhibition, 48 h
A549 = tested on: A549
NCI-H226 = tested on: NCI-H226
NCI-H23 = tested on: NCI-H23
KM12 = tested on: KM12
SK-MEL-5 = tested on: SK-MEL-5
SK-MEL-28 = tested on: SK-MEL-28
MDA-MB-435 = tested on: MDA-MB-435
HCC 2998 = tested on: HCC 2998
RXF 393 = tested on: RXF 393
MDA-N = tested on: MDA-N
IGROV-1 = tested on: IGROV-1
MOLT-4 = tested on: MOLT-4
MCF7 = tested on: MCF7
A498 = tested on: A498
OVCAR-8 = tested on: OVCAR-8
HCT-15 = tested on: HCT-15
SNB-75 = tested on: SNB-75
HOP-92 = tested on: HOP-92
Hs-578T = tested on: Hs-578T
Malme-3M = tested on: Malme-3M

Measured: GI50

COc1cc(C2c3cc4c(cc3[C@H](OCCN(C)C)[C@@H]3COC(=O)C23)OCO4)cc(OC)c1O (some centres undefined)
active: A549 0.0334 µM | NCI-H226 0.0441 µM | NCI-H23 0.155 µM | KM12 0.69 µM | SK-MEL-5 0.307 µM | SK-MEL-28 1.02 µM | HCC 2998 0.774 µM | RXF 393 0.299 µM | MOLT-4 < 0.0123 µM | MCF7 0.0484 µM | A498 0.105 µM | OVCAR-8 0.624 µM | SNB-75 0.307 µM | HOP-92 0.0989 µM | Malme-3M 0.275 µM
0.605 µM: HCT-15
inactive: MDA-MB-435 2 µM | MDA-N 2.12 µM | IGROV-1 1.36 µM | Hs-578T 1.52 µM

O=[N+]([O-])c1cc(Cl)cnc1Br
inactive: A549 2.67 µM | NCI-H226 2.61 µM | NCI-H23 5.52 µM | KM12 4.03 µM | SK-MEL-5 2.4 µM | SK-MEL-28 3.33 µM | MDA-MB-435 2.23 µM | HCC 2998 1.37 µM | RXF 393 1.52 µM | MDA-N 3.33 µM | IGROV-1 2.22 µM | MOLT-4 1.25 µM | MCF7 1.32 µM | A498 17.1 µM | OVCAR-8 2.12 µM | HOP-92 8.75 µM | Hs-578T 7.16 µM | Malme-3M 10.9 µM
2.25 µM: HCT-15

Cc1ccc(OCC2OC(n3cnc4c(Cl)nc(Cl)nc43)CC2Oc2ccc(C)cc2)cc1 (centres undefined)
inactive: A549 3.5 µM | NCI-H226 3 µM | NCI-H23 1.85 µM | KM12 1.7 µM | SK-MEL-5 7.1 µM | SK-MEL-28 2.7 µM | MDA-MB-435 2.26 µM | HCC 2998 16.5 µM | MDA-N 1.93 µM | IGROV-1 2.04 µM | MOLT-4 1.94 µM | MCF7 1.85 µM | A498 23.1 µM | OVCAR-8 2.31 µM | SNB-75 2.52 µM | HOP-92 2.28 µM | Hs-578T 1.9 µM | Malme-3M 2.18 µM
1.82 µM: HCT-15

OCc1ccc2c(c1)CC1(C2)Cc2cc3c(cc2C1)CCC3
active: MDA-MB-435 0.204 µM | MDA-N 0.339 µM
inactive: A549 8.47 µM | NCI-H226 22.4 µM | NCI-H23 4.3 µM | KM12 1.9 µM | SK-MEL-5 2.3 µM | SK-MEL-28 8.3 µM | HCC 2998 6.12 µM | RXF 393 2.58 µM | IGROV-1 7.87 µM | MOLT-4 4.41 µM | MCF7 2.5 µM | A498 5.86 µM | OVCAR-8 10.8 µM | SNB-75 2.26 µM | HOP-92 8.99 µM | Hs-578T 4.02 µM | Malme-3M 4.71 µM
2.92 µM: HCT-15

OC(CN1CCCCC1)c1ccc(/C=C/c2ccc(Cl)cc2)cc1 (centres undefined)
25.2 µM: HCT-15
inactive: A549 > 100 µM | NCI-H226 > 100 µM | NCI-H23 > 100 µM | KM12 17.2 µM | SK-MEL-5 22.3 µM | SK-MEL-28 22.3 µM | MDA-MB-435 54.3 µM | HCC 2998 46 µM | RXF 393 > 100 µM | MDA-N 56.9 µM | IGROV-1 26.2 µM | MOLT-4 > 100 µM | MCF7 > 100 µM | A498 40 µM | OVCAR-8 > 100 µM | HOP-92 50.6 µM | Hs-578T 50.1 µM | Malme-3M 60.3 µM

O=C(Nc1ccccc1)c1cc2ccccc2c(/N=N\c2cccc([N+](=O)[O-])c2)c1O
> 100 µM: HCT-15
inactive: A549 > 100 µM | NCI-H226 > 100 µM | NCI-H23 > 100 µM | KM12 > 100 µM | SK-MEL-5 > 100 µM | SK-MEL-28 94.4 µM | MDA-MB-435 > 100 µM | HCC 2998 > 100 µM | RXF 393 47.8 µM | MDA-N > 100 µM | IGROV-1 37.7 µM | MOLT-4 > 100 µM | MCF7 > 100 µM | A498 > 100 µM | OVCAR-8 78.2 µM | SNB-75 33.5 µM | HOP-92 > 100 µM | Hs-578T 21.2 µM | Malme-3M 7.26 µM

Cc1cc(O)c(C=O)c2c1C(=O)Oc1c(CO)c(O)c3c(c1O2)C(O)OC3=O (centres undefined) [SLAZINIC ACID]
55.2 µM: HCT-15
inactive: A549 > 100 µM | NCI-H226 38.8 µM | NCI-H23 > 100 µM | KM12 36.7 µM | SK-MEL-5 34.3 µM | SK-MEL-28 91.8 µM | MDA-MB-435 39.6 µM | HCC 2998 > 100 µM | RXF 393 87.5 µM | MDA-N 66.2 µM | IGROV-1 > 100 µM | MOLT-4 22.1 µM | MCF7 24.5 µM | A498 58.3 µM | OVCAR-8 52.7 µM | SNB-75 24.1 µM | HOP-92 50.6 µM | Hs-578T 31.6 µM | Malme-3M 41 µM

O=C1Oc2ccccc2C(=O)/C1=C\Nc1nc(-c2ccc(O)c(O)c2)cs1
active: MOLT-4 0.447 µM
3.39 µM: HCT-15
inactive: A549 6.67 µM | NCI-H226 6.31 µM | NCI-H23 2.81 µM | KM12 9.08 µM | SK-MEL-5 4.8 µM | SK-MEL-28 9.12 µM | MDA-MB-435 4.88 µM | HCC 2998 7.14 µM | RXF 393 6.03 µM | MDA-N 4.98 µM | IGROV-1 7.76 µM | MCF7 3.94 µM | A498 11.9 µM | OVCAR-8 4.14 µM | SNB-75 5.56 µM | HOP-92 13.5 µM | Hs-578T 15.3 µM | Malme-3M 2.99 µM

O=C(NCCCN(CCCCN(CCCNC(=O)C(F)(F)F)Cc1ccccc1)Cc1ccccc1)C(F)(F)F
inactive: A549 24.2 µM | NCI-H226 17.2 µM | NCI-H23 15.5 µM | KM12 13.2 µM | SK-MEL-5 3.39 µM | SK-MEL-28 12.6 µM | MDA-MB-435 18.3 µM | HCC 2998 4.24 µM | RXF 393 14.8 µM | MDA-N 15.7 µM | IGROV-1 13.4 µM | MOLT-4 14.7 µM | MCF7 12.3 µM | A498 20.6 µM | OVCAR-8 14 µM | SNB-75 12.6 µM | HOP-92 10.5 µM | Hs-578T 16.6 µM | Malme-3M 15.1 µM
12.4 µM: HCT-15

CCCCCCCCCCCCCCCCCCNC(=O)C(N)Cc1ccc(OCc2ccccc2)cn1 (centres undefined)
inactive: A549 19.5 µM | NCI-H23 16.8 µM | KM12 18.6 µM | SK-MEL-5 18 µM | SK-MEL-28 24.1 µM | MDA-MB-435 17.3 µM | HCC 2998 11.9 µM | RXF 393 20 µM | MDA-N 26.5 µM | IGROV-1 15.2 µM | MOLT-4 16 µM | MCF7 19.4 µM | A498 20.3 µM | OVCAR-8 15.8 µM | SNB-75 27.4 µM | HOP-92 17.1 µM | Hs-578T 21.6 µM | Malme-3M 20.6 µM
18.9 µM: HCT-15

c1ccc2c3nnc(c2c1)SCCSCCCSCCS3
inactive: A549 91 µM | NCI-H226 35.6 µM | NCI-H23 > 100 µM | KM12 > 100 µM | SK-MEL-5 54.1 µM | SK-MEL-28 > 100 µM | MDA-MB-435 > 100 µM | HCC 2998 > 100 µM | RXF 393 38.5 µM | MDA-N > 100 µM | IGROV-1 34.4 µM | MCF7 > 100 µM | A498 45.1 µM | OVCAR-8 56.9 µM | SNB-75 3.52 µM | HOP-92 37.2 µM | Hs-578T 32.4 µM | Malme-3M 29.6 µM
> 100 µM: HCT-15

COc1cc([C@@H]2c3cc4c(cc3[C@H](OC3OC5COC(c6ccco6)OC5C(O)C3O)C3COC(=O)[C@@H]32)OCO4)cc(OC)c1OC (some centres undefined)
3.2 µM: HCT-15
inactive: A549 3.79 µM | NCI-H226 4.17 µM | NCI-H23 3.56 µM | KM12 4.48 µM | SK-MEL-5 4.21 µM | MDA-MB-435 3.59 µM | HCC 2998 4 µM | RXF 393 2.82 µM | MDA-N 2.04 µM | IGROV-1 3.56 µM | MCF7 3.85 µM | A498 2.29 µM | OVCAR-8 14.2 µM | SNB-75 > 100 µM | HOP-92 9.93 µM | Hs-578T 5.01 µM | Malme-3M 22.3 µM

Cc1ccc(S(=O)(=O)N2CCNCCN(S(=O)(=O)c3ccc(C)cc3)CCNCC2)cc1
inactive: A549 34.2 µM | NCI-H226 19.3 µM | NCI-H23 32.3 µM | KM12 20.8 µM | SK-MEL-5 16.3 µM | SK-MEL-28 18.5 µM | MDA-MB-435 18.1 µM | HCC 2998 15.7 µM | RXF 393 2.65 µM | MDA-N 20.2 µM | IGROV-1 19.7 µM | MCF7 27.3 µM | A498 23.2 µM | OVCAR-8 19.2 µM | SNB-75 20.2 µM | HOP-92 18.7 µM | Hs-578T 17.8 µM | Malme-3M 17.5 µM
32.9 µM: HCT-15

CCOC(=O)c1c(SC(=O)c2ccc(OC)cc2)n(-c2ccccc2)c(=S)n(-c2ccccc2)c1=O
23.4 µM: HCT-15
inactive: A549 > 100 µM | NCI-H226 84.1 µM | NCI-H23 61.9 µM | KM12 > 100 µM | SK-MEL-28 > 100 µM | MDA-MB-435 54.6 µM | HCC 2998 > 100 µM | RXF 393 49.3 µM | MDA-N > 100 µM | IGROV-1 21.1 µM | MOLT-4 22.5 µM | MCF7 30.9 µM | A498 27.3 µM | OVCAR-8 21.8 µM | SNB-75 > 100 µM | HOP-92 > 100 µM | Hs-578T 45.4 µM | Malme-3M > 100 µM

O=c1[nH]nc(-c2ccccc2)c2[nH]c3c4ccccc4ccc3c12
0.643 µM: HCT-15
inactive: A549 1.31 µM | NCI-H226 4.14 µM | NCI-H23 2.15 µM | RXF 393 1.58 µM | IGROV-1 4.24 µM | MOLT-4 1.64 µM | A498 1.51 µM | SNB-75 3.93 µM | HOP-92 20.3 µM | Hs-578T 1.79 µM | Malme-3M 4.83 µM
active: KM12 0.692 µM | SK-MEL-5 0.587 µM | MDA-MB-435 0.193 µM | HCC 2998 0.948 µM | MDA-N 0.199 µM | MCF7 0.331 µM
